What was measured:
[1] = target: aryl hydrocarbon receptor (AhR) (Mus musculus (Mouse), UniProt P30561); experiment: AhR ligand screening: AhRE-luciferase reporter in transfected Hepa1 cells; assay type: cell-based; conditions: for Fold @ 1 nM: fold change of luciferase expression at 1 nM test compound relative to vehicle (0.1% DMSO); for Fold @ 100 nM: fold change of luciferase expression at 100 nM test compound relative to vehicle (0.1% DMSO); for Fold @ 10 uM: fold change of luciferase expression at 10 uM test compound relative to vehicle (0.1% DMSO); for Fold relative to benchmark @ 100 nM: luciferase expression at 100 nM test compound relative to 100 nM benchmark compound 11-cl-BBQ
In short: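 Mouse Hepa1 cells transfected with an AhRE-luciferase reporter were plated at 1×10^4 cells/well, grown overnight, then exposed to compounds. Cell lysates were assayed for luciferase by luminometry, with results given as fold induction over 0.1% DMSO vehicle.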

CYP-2C8 = CYP-2C8 (Homo sapiens (Human), UniProt P10632); experiment: CYP panel profile: P450 inhibition, CYP-2C8; assay type: in vitro ADME; conditions: human liver microsomes
Method: (§1) 5. CYP Panel Profile: P450 Inhibition
(§2) From 10 mM stock solutions of test compounds, a dilution plate was prepared diluting serially starting from 5 mM up to 2 μM in Acetonitrile/DMSO or Methanol/DMSO Human liver Microsomes were added at required concentration as per specific CYP isoform in a deep well assay plate (1A2, 2C9, 2D6, 2B6, 2C8, 2C19, and 3A4). Compounds were spiked in all wells from dilution plate at final concentrations starting from 50 μM up to 0.02 μM, except for positive and negative control. Specific substrate were added to all wells and reactions were pre-incubated for 10 min. To start reactions, NADPH was added to all wells at 1 mM final concentration. Assay plate was mixed by vortexing and incubated at 37° C. for […] for 3A4.20 min for (1A2, 2C9, 2B6, 2C8, 2D6) and […] for 2C19. A quencher with chilled acetonitrile suitable internal standard was added. Samples were centrifuged and supernatants were collected and subjected to LC-MS/MS analysis for determination.

CYP-1A2 = CYP-1A2 (Homo sapiens (Human), UniProt P05177); experiment: CYP panel profile: P450 inhibition, CYP-1A2; assay type: in vitro ADME; conditions: human liver microsomes; read-out: CYP-1A2 IC50
Method: as §1, §2

CYP-2B6 = CYP-2B6 (Homo sapiens (Human), UniProt P20813); experiment: CYP panel profile: P450 inhibition, CYP-2B6; assay type: in vitro ADME; conditions: human liver microsomes
Method: as §1, §2

CYP-2D6 = CYP-2D6 (Homo sapiens (Human), UniProt P10635); experiment: CYP panel profile: P450 inhibition, CYP-2D6; assay type: in vitro ADME; conditions: human liver microsomes
Method: as §1, §2

CYP-3A4 = CYP-3A4 (Homo sapiens (Human), UniProt P08684); experiment: CYP panel profile: P450 inhibition, CYP-3A4; assay type: in vitro ADME; conditions: human liver microsomes
Method: as §1, §2

CYP-2C9 = CYP-2C9 (Homo sapiens (Human), UniProt P11712); experiment: CYP panel profile: P450 inhibition, CYP-2C9; assay type: in vitro ADME; conditions: human liver microsomes
Method: as §1, §2

CYP-2C19 = CYP-2C19 (Homo sapiens (Human), UniProt P33261); experiment: CYP panel profile: P450 inhibition, CYP-2C19; assay type: in vitro ADME; conditions: human liver microsomes
Method: as §1, §2

Chain of CYP-2C8 (P10632 whole entry): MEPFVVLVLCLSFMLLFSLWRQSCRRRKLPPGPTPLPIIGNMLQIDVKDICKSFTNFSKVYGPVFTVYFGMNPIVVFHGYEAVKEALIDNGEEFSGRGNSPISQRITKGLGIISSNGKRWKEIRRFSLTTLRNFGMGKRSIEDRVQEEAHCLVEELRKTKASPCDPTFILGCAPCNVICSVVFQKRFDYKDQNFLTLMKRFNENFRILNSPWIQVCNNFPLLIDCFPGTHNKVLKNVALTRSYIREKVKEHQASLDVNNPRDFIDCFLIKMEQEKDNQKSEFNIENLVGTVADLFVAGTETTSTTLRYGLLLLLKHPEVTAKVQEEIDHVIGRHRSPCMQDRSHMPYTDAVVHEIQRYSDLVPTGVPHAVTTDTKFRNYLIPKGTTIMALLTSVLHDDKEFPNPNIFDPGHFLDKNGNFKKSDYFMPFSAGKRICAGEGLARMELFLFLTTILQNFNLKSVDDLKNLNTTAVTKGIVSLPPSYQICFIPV
Chain of CYP-2C19 (P33261 whole entry): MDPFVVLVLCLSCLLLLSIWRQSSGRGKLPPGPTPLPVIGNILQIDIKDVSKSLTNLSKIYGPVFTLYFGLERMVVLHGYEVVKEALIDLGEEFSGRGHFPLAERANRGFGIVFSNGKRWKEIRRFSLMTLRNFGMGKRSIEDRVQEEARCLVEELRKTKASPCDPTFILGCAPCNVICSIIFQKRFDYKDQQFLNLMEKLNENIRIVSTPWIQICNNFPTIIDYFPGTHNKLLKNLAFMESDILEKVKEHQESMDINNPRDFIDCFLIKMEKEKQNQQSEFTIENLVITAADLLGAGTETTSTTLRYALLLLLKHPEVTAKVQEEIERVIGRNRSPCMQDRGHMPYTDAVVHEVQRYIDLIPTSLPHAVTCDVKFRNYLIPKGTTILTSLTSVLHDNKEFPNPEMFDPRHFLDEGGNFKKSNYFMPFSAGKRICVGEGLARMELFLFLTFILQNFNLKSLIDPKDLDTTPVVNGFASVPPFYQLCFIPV
Chain of CYP-2D6 (P10635 whole entry): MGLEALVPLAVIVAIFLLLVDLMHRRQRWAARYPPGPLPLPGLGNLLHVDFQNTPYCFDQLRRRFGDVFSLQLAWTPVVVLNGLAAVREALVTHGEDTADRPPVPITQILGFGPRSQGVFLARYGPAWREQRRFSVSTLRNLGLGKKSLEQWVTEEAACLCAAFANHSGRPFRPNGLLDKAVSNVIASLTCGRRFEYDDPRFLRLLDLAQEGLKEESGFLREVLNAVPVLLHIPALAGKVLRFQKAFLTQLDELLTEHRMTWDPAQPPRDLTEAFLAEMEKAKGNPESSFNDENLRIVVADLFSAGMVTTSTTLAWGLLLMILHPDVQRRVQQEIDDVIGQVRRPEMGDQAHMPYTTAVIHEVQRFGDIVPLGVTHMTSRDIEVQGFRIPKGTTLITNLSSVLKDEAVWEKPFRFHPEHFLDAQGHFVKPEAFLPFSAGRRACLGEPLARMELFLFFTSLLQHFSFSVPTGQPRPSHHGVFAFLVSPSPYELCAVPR
Chain of CYP-2B6 (P20813 whole entry): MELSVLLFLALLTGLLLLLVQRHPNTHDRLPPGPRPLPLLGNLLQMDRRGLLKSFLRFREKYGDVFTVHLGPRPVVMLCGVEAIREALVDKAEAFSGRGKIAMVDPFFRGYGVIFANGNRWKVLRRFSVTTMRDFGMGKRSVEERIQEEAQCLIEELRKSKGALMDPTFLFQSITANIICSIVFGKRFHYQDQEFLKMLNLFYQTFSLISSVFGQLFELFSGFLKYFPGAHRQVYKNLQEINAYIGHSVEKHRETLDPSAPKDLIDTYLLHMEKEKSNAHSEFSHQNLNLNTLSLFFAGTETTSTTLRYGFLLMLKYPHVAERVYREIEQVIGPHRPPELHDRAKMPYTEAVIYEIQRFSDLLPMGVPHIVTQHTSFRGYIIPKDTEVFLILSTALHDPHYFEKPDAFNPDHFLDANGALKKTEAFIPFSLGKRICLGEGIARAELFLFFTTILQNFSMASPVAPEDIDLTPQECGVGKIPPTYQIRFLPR
Chain of aryl hydrocarbon receptor (AhR) (P30561 10-805): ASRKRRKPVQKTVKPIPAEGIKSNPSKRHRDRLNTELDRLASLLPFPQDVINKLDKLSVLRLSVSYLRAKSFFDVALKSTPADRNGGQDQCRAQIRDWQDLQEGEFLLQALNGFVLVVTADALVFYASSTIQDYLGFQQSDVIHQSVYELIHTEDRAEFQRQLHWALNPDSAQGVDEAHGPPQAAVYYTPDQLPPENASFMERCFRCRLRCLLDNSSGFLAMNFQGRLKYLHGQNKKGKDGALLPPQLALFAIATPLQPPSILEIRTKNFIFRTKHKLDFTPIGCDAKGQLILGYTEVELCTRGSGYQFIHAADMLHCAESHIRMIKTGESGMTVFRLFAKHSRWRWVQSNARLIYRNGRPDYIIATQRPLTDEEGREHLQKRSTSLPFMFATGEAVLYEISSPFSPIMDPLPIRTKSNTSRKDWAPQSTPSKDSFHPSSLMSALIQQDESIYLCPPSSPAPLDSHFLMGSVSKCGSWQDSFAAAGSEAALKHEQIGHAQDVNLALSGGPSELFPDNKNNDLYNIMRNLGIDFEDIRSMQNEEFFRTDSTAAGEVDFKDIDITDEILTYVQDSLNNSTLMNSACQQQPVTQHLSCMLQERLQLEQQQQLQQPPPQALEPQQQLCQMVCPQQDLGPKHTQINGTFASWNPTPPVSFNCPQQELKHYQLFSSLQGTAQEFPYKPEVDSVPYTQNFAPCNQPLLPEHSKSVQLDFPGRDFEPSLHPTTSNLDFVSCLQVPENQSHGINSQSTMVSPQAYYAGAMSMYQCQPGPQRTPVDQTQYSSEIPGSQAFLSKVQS
Chain of aryl hydrocarbon receptor (AhR) (P53762 whole entry partner): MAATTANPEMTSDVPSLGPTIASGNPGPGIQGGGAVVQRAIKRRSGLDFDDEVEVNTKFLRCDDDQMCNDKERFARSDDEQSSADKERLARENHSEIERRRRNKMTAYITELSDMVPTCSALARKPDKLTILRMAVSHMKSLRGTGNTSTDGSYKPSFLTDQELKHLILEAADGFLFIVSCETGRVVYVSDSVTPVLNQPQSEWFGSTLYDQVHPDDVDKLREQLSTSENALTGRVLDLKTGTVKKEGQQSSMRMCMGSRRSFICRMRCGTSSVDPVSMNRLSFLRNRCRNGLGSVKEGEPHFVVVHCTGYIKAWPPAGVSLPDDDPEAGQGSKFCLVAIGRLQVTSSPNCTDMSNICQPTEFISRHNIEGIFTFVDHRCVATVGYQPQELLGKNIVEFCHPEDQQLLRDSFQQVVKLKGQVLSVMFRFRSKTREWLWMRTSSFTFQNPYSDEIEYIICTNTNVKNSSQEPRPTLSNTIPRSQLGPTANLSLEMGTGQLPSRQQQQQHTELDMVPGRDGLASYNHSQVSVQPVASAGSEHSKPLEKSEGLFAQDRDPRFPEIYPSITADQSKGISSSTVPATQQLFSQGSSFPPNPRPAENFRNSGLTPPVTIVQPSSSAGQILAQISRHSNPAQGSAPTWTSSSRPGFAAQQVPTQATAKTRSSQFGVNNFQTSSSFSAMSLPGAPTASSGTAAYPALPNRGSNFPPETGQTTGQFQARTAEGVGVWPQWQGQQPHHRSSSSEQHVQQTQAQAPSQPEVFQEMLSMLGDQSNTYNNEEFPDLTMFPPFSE
Chain of CYP-2C9 (P11712 whole entry): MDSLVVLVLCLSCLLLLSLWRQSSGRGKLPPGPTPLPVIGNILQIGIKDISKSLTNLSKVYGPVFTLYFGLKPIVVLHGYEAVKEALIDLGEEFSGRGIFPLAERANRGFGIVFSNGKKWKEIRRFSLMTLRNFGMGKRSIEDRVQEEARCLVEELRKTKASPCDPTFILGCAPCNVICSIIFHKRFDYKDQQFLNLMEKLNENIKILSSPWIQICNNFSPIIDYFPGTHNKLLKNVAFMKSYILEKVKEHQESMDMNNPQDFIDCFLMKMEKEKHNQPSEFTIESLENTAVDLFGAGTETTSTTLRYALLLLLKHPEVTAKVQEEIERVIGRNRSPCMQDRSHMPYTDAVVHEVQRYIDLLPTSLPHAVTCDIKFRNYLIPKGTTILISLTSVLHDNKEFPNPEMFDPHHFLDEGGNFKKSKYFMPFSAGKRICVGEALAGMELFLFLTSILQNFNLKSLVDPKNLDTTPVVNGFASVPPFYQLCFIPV
Chain of CYP-1A2 (P05177 whole entry): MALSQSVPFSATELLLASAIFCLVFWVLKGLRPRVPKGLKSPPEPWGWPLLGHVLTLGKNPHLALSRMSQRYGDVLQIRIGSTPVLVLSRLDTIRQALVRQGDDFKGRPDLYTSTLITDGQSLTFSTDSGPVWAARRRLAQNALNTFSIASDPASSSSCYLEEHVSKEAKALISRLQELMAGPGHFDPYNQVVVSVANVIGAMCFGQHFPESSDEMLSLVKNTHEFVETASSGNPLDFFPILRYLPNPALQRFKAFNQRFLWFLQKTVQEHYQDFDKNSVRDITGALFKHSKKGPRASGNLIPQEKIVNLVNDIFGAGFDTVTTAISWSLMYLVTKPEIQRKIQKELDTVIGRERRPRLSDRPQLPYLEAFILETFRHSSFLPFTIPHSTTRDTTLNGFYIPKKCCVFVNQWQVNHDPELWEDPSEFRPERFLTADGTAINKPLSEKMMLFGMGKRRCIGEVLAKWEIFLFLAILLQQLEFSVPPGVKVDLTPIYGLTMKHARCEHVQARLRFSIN

| SMILES | Fold @ 1 nM [1] | Fold @ 100 nM [1] | Fold @ 10 uM [1] | Fold relative to benchmark @ 100 nM [1] | IC50 (CYP-2C8) | IC50 (CYP-1A2) | IC50 (CYP-2B6) | IC50 (CYP-2D6) | IC50 (CYP-3A4) | IC50 (CYP-2C9) | IC50 (CYP-2C19) |
| --- | --- | --- | --- | --- | --- | --- | --- | --- | --- | --- | --- |
| COC(=O)c1ccc2nc(-c3cccc4ccccc34)n(C(=O)c3ccc(F)c(F)c3)c2c1 [Compound 849] | 1 fold | 1 fold | 1 fold | 0.04 fold | 4.1 µM | 15.1 µM | > 48 µM | 19.3 µM | > 50 µM | 7.7 µM | 1.5 µM |
| O=C(c1ccc(F)c(F)c1)n1c(-c2cccc3ccccc23)nc2cc(Cl)ccc21 [Compound 530] | 2 fold | 39 fold | 56 fold | 0.98 fold | 9.4 µM | 0.5 µM | 9.4 µM | > 50 µM | 3.7 µM | 5 µM | 3.4 µM |
| O=C(c1cccc2ccccc12)n1c(-c2cccc3ccccc23)nc2cc(Cl)ccc21 [Compound 704] |  |  |  |  | 5.6 µM | 1.2 µM | 8.2 µM | > 50 µM | 3.9 µM | 8.9 µM | 4.6 µM |
| O=C(c1ccccc1)n1c(-c2cccc3ccccc23)nc2cc(Cl)c(Cl)cc21 [Compound 693] | 2 fold | 32 fold | 87 fold | 1.23 fold | 3.5 µM | 8.6 µM | > 50 µM | > 50 µM | 2 µM | 11.6 µM | 24.1 µM |
| O=C(c1c(F)cc(Br)cc1F)n1c(-c2cccc3ccccc23)nc2cc(Cl)ccc21 [Compound 638] | 1 fold | 12 fold | 20 fold | 1.17 fold | 1.8 µM | 0.3 µM | 11.6 µM | 14.5 µM | 8.1 µM | 5.2 µM | 3.4 µM |
| O=C(c1ccccc1)n1c(-c2cccc3ccccc23)nc2ccc(Cl)cc21 [Compound 495] | 2.3 fold | 25 fold | 59 fold | 0.81 fold | 1.9 µM | 0.3 µM | 19.3 µM | 32.6 µM | 5.3 µM | 5.6 µM | 1.4 µM |
